According to patent US9126986B2, “Hetero-bicyclic derivatives as HCV inhibitors” (Janssen R&D Ireland, priority 2011, dated 2015):
Where two headings read alike, the source gives them in different places.

What was measured:
[1] = tested on: HCV subgenomic replicon genotype 1a H77 in Huh-7 lunet cells; experiment: HCV replicon assay, transient transfection, genotype 1a H77; type: cell-based, HCV genotype 1a H77; conditions: transiently transfected Huh-7 lunet, genotype 1a H77, two days incubation, luciferase
Text: (§1) In a transient set-up, a Huh-7 lunet hepatoma cell line was transiently transfected with an autonomously replicating RNA encoding a bi-cistronic expression construct. This construct comprises a firefly luciferase reporter gene preceding the NS3-NS5B subgenomic region of HCV (genotype 1a H77 or 1b Con1). Translation of the HCV subgenomic region is mediated by an internal ribosome entry site of encephalomyocarditis virus. The construct is furthermore flanked by 5′ and 3′ untranslated regions of HCV (genotype 1a H77 or 1b Con 1, respectively), which allow for replication of the RNA.
(§2) Cells were plated in 384 well plates in the presence of test and control compounds, which were added in various concentrations. Following an incubation of two days, replication of the HCV subgenomic replicon RNA was measured by assaying luciferase activity (using standard luciferase assay substrates and reagents and a Perkin Elmer ViewLux™ ultraHTS microplate imager). HCV subgenomic replicon containing cells in the control cultures have high luciferase expression in the absence of any inhibitor. The inhibitory activity of the compound was monitored, enabling a dose-response curve for each test compound. EC50 values were then calculated, which represent the amount of compound required to decrease the level of detected luciferase activity by 50%, or more specifically, to reduce the ability of the genetically linked HCV subgenomic RNA to replicate.

[2] = Counterscreen Huh7-CMV-Luc; type: cell-based; conditions: Huh-7 hepatoma cell line with human CMV major immediate-early promoter-Luc construct
Text: (§3) Counterscreen cell lines included a Huh-7 hepatoma cell line containing a human cytomegalovirus major immediate-early promoter-Luc construct (Huh7-CMV-Luc) and an MT4 T-cell line containing a long terminal repeat-Luc reporter (MT4-LTR-Luc).

[3] = Counterscreen MT4-LTR-Luc; type: cell-based; conditions: human; MT4 T-cell line with long terminal repeat-Luc reporter
Text: as §3

[4] = tested on: HCV replicon type 1b in Huh-Luc cells; experiment: HCV replicon assay, stable transfection (Huh-7 luc/neo, luciferase readout); type: cell-based, HCV type 1b; conditions: stably transfected Huh-Luc cells, genotype 1b, three days incubation, average where tested more than once, read-out: HCV-REP-HUH7LUC_EC50
Text: The compounds of formula (I) were examined for inhibitory activity in the HCV replicon. This cellular assay is based on a bicistronic expression construct, as described by Lohmann et al. (Science (1999) 285: 110-113; Journal of Virology (2003) 77: 3007-3019) with modifications described by Krieger et al. (Journal of Virology (2001) 75: 4614-4624), and Lohmann et al. (Journal of Virology (2003) 77: 3007-3019) for genotype 1b and by Yi et al. (Journal of Virology (2004) 78: 7904-7915) for genotype 1a, in a multi-target screening strategy.
The method was as follows. The assay utilized the stably transfected cell line Huh-7 luc/neo (hereafter referred to as Huh-Luc). This cell line harbors an RNA encoding a bicistronic expression construct comprising the wild type NS3-NS5B regions of HCV type 1b translated from an Internal Ribosome Entry Site (IRES) from encephalomyocarditis virus (EMCV), preceded by a reporter portion (FfL-luciferase), and a selectable marker portion (neoR, neomycine phosphotransferase). The construct is flanked by 5′ and 3′ NTRs (non-translated regions) from HCV type 1b. Continued culture of the replicon cells in the presence of G418 (neoR) is dependent on the replication of the HCV RNA. The stably transfected replicon cells that replicate HCV RNA autonomously and to high levels, encoding inter alia luciferase, were used for screening the antiviral compounds.
The replicon cells were plated in 384 well plates in the presence of the test and control compounds which were added in various concentrations. Following an incubation of three days, HCV replication was measured by assaying luciferase activity (using standard luciferase assay substrates and reagents and a Perkin Elmer ViewLux™ ultraHTS microplate imager). Replicon cells in the control cultures have high luciferase expression in the absence of any inhibitor. The inhibitory activity of the compound was monitored on the Huh-Luc cells, enabling a dose-response curve for each test compound. EC50 values were then calculated, which represent the amount of compound required to decrease the level of detected luciferase activity by 50%, or more specifically, to reduce the ability of the genetically linked HCV replicon RNA to replicate.
Where a compound of formula (I) was tested more than once in the replicon assay, the average of all test results is given in this Table 1.

[5] = tested on: HCV subgenomic replicon genotype 1b Con1 in Huh-7 lunet cells; experiment: HCV replicon assay, transient transfection, genotype 1b Con1; type: cell-based, HCV genotype 1b Con1; conditions: transiently transfected Huh-7 lunet, genotype 1b Con1, two days incubation, luciferase
Text: as §1, §2

MT4-LTR-Luc cells = experiment: Counterscreen MT4-LTR-Luc; type: cell-based; conditions: MT4 T-cell line with long terminal repeat-Luc reporter
Text: as §3

COC(=O)N[C@H](C(=O)N1CCCC1c1cc(=O)c2ccc(-c3ccc(-c4ccc(-c5cnc([C@@H]6CCCN6C(=O)[C@@H](NC(=O)OC)C(C)C)[nH]5)cc4)cc3)cc2[nH]1)C(C)C (single isomer, unassigned) [Compound 3a]
EC50 [1]: 0.008 nM | CC50 [2]: > 984 nM | CC50 [3]: > 984 nM | EC50 [4]: 0.021 nM | EC50 [5]: 0.025 nM

COC(=O)N[C@H](C(=O)N1CCCC1c1cc(=O)c2ccc(-c3ccc(-c4ccc(-c5cnc([C@@H]6CCCN6C(=O)[C@@H](NC(=O)OC)C(C)C)[nH]5)cc4)cc3)cc2[nH]1)C(C)C (single isomer, unassigned) [Compound 3b]
EC50 [1]: 0.941 nM | CC50 (MT4-LTR-Luc cells): > 984 nM | EC50 [4]: 1.13 nM | EC50 [5]: 1.36 nM

COC(=O)N[C@H](C(=O)N1CCCC1c1cc(=O)c2ccc(-c3ccc4c(c3)C(F)(F)c3cc(-c5c[nH]c([C@@H]6CCCN6C(=O)[C@@H](NC(=O)OC)C(C)C)n5)ccc3-4)cc2[nH]1)C(C)C (single isomer, unassigned) [Compound 5a]
EC50 [1]: 0.007 nM | CC50 [2]: > 984 nM | CC50 [3]: > 984 nM | EC50 [4]: 0.014 nM | EC50 [5]: 0.013 nM

COC(=O)N[C@H](C(=O)N1CCCC1c1cc(=O)c2ccc(-c3ccc4c(c3)C(F)(F)c3cc(-c5c[nH]c([C@@H]6CCCN6C(=O)[C@@H](NC(=O)OC)C(C)C)n5)ccc3-4)cc2[nH]1)C(C)C (single isomer, unassigned) [Compound 5b]
EC50 [1]: 0.21 nM | CC50 (MT4-LTR-Luc cells): > 984 nM | EC50 [4]: 0.228 nM | EC50 [5]: 0.63 nM

COC(=O)N[C@H](C(=O)N1CCCC1c1[nH]c2cc(-c3ccc(-c4ccc(-c5cnc([C@@H]6CCCN6C(=O)[C@@H](NC(=O)OC)C(C)C)[nH]5)cc4)cc3)ccc2c(=O)c1F)C(C)C (single isomer, unassigned) [Compound 18a]
EC50 [1]: 0.011 nM | CC50 [2]: > 984 nM | CC50 [3]: > 984 nM | EC50 [4]: 0.03 nM | EC50 [5]: 0.037 nM

COC(=O)N[C@H](C(=O)N1CCCC1c1[nH]c2cc(-c3ccc(-c4ccc(-c5cnc([C@@H]6CCCN6C(=O)[C@@H](NC(=O)OC)C(C)C)[nH]5)cc4)cc3)ccc2c(=O)c1F)C(C)C (single isomer, unassigned) [Compound 18b]
EC50 [1]: 65.6 nM | CC50 (MT4-LTR-Luc cells): > 984 nM | EC50 [4]: 4.4 nM | EC50 [5]: 6.7 nM

COC(=O)N[C@H](C(=O)N1CCC[C@H]1c1ncc(-c2ccc3c(c2)C(F)(F)c2cc(-c4ccc5c(=O)cc([C@@H]6C[C@@H]7CCCC[C@@H]7N6C(=O)[C@@H](NC(=O)OC)C(C)C)[nH]c5c4)ccc2-3)[nH]1)C(C)C [Compound 6]
EC50 ([1]; Hepatitis C virus, Huh-7, 48 h): 0.005 nM | CC50 [2]: > 984 nM | CC50 [3]: > 984 nM | EC50 ([4]; Hepatitis C virus, Huh-7, 72 h): 0.012 nM | EC50 ([5]; Hepatitis C virus, Huh-7, 48 h): 0.013 nM

COC(=O)N[C@H](C(=O)N1CCC[C@H]1c1cc(=O)c2cc(F)c(-c3ccc(-c4ccc(-c5cnc([C@@H]6CCCN6C(=O)[C@@H](NC(=O)OC)C(C)C)[nH]5)cc4)cc3)cc2[nH]1)C(C)C [Compound 7]
EC50 ([1]; Hepatitis C virus, Huh-7, 48 h): 0.042 nM | CC50 [2]: > 984 nM | CC50 [3]: > 984 nM | EC50 ([4]; Hepatitis C virus, Huh-7, 72 h): 0.008 nM | EC50 ([5]; Hepatitis C virus, Huh-7, 48 h): 0.021 nM

COC(=O)N[C@H](C(=O)N1CCC[C@H]1c1ncc(-c2ccc3c(c2)C(F)(F)c2cc(-c4ccc5c(=O)cc([C@@H]6[C@H]7CC[C@H](C7)N6C(=O)[C@@H](NC(=O)OC)C(C)C)[nH]c5c4)ccc2-3)[nH]1)C(C)C [Compound 8]
EC50 ([1]; Hepatitis C virus, Huh-7, 48 h): 0.003 nM | CC50 [2]: > 984 nM | CC50 [3]: 770 nM | EC50 ([4]; Hepatitis C virus, Huh-7, 72 h): 0.004 nM | EC50 ([5]; Hepatitis C virus, Huh-7, 48 h): 0.005 nM

COC(=O)N[C@H](C(=O)N1CCC[C@H]1c1nc(-c2ccc(-c3ccc(-c4ccc5c(=O)nc([C@@H]6CCCN6C(=O)[C@@H](NC(=O)OC)C(C)C)[nH]c5c4)cc3)cc2)c[nH]1)C(C)C [Compound 11]
EC50 ([1]; Hepatitis C virus, Huh-7, 48 h): 1.47 nM | CC50 [2]: > 984 nM | CC50 [3]: > 984 nM | EC50 ([4]; Hepatitis C virus, Huh-7, 72 h): 0.149 nM | EC50 ([5]; Hepatitis C virus, Huh-7, 48 h): 0.025 nM

COC(=O)N[C@H](C(=O)N1CCC[C@H]1c1ncc(-c2ccc3c(c2)C(F)(F)c2cc(-c4ccc5c(=O)[nH]c([C@@H]6CCCN6C(=O)[C@@H](NC(=O)OC)C(C)C)nc5c4)ccc2-3)[nH]1)C(C)C [Compound 12]
EC50 ([1]; Hepatitis C virus, Huh-7, 48 h): 0.047 nM | CC50 [2]: > 984 nM | EC50 ([4]; Hepatitis C virus, Huh-7, 72 h): 0.007 nM | EC50 ([5]; Hepatitis C virus, Huh-7, 48 h): 0.005 nM

COC(=O)N[C@H](C(=O)N1CCC[C@H]1C1=NS(=O)(=O)c2ccc(-c3ccc4c(c3)C(F)(F)c3cc(-c5cnc([C@@H]6CCCN6C(=O)[C@@H](NC(=O)OC)C(C)C)[nH]5)ccc3-4)cc2N1)C(C)C [Compound 14]
EC50 ([1]; Hepatitis C virus, Huh-7, 48 h): 0.005 nM | CC50 [2]: > 984 nM | CC50 [3]: > 984 nM | EC50 ([4]; Hepatitis C virus, Huh-7, 72 h): 0.008 nM | EC50 ([5]; Hepatitis C virus, Huh-7, 48 h): 0.017 nM

COC(=O)N[C@H](C(=O)N1CCC[C@H]1C1=NC2(COC2)c2ccc(-c3ccc4c(c3)C(F)(F)c3cc(-c5cnc([C@@H]6CCCN6C(=O)[C@@H](NC(=O)OC)C(C)C)[nH]5)ccc3-4)cc2N1)C(C)C [Compound 16]
EC50 ([1]; Hepatitis C virus, Huh-7, 48 h): 0.04 nM | CC50 [2]: > 984 nM | CC50 [3]: > 984 nM | EC50 ([4]; Hepatitis C virus, Huh-7, 72 h): 0.011 nM | EC50 ([5]; Hepatitis C virus, Huh-7, 48 h): 0.033 nM

COC(=O)N[C@H](C(=O)N1CCC[C@H]1C1=NC2(COC2)c2ccc(-c3ccc(-c4ccc(-c5cnc([C@@H]6CCCN6C(=O)[C@@H](NC(=O)OC)C(C)C)[nH]5)cc4)cc3)cc2N1)C(C)C [Compound 20]
EC50 ([1]; Hepatitis C virus, Huh-7, 48 h): 0.46 nM | CC50 [2]: > 984 nM | CC50 [3]: > 984 nM | EC50 ([4]; Hepatitis C virus, Huh-7, 72 h): 0.023 nM | EC50 ([5]; Hepatitis C virus, Huh-7, 48 h): < 0.019 nM

COC(=O)N[C@H](C(=O)N1CCC[C@H]1C1=NS(=O)(=O)c2ccc(-c3ccc(-c4ccc(-c5c[nH]c([C@@H]6CCCN6C(=O)[C@@H](NC(=O)OC)C(C)C)n5)cc4)cc3)cc2N1)C(C)C [Compound 22]
EC50 ([1]; Hepatitis C virus, Huh-7, 48 h): 0.054 nM | CC50 [2]: > 984 nM | CC50 [3]: > 984 nM | EC50 ([4]; Hepatitis C virus, Huh-7, 72 h): 0.012 nM | EC50 ([5]; Hepatitis C virus, Huh-7, 48 h): 0.012 nM

COC(=O)N[C@H](C(=O)N1CC2(C[C@H]1c1ncc(-c3ccc4c(c3)C(F)(F)c3cc(-c5ccc6c(=O)[nH]c([C@@H]7C[C@@H]8CCCC[C@@H]8N7C(=O)[C@@H](NC(=O)OC)C(C)C)nc6c5)ccc3-4)[nH]1)OCCO2)C(C)C [Compound 23]
EC50 ([1]; Hepatitis C virus, Huh-7, 48 h): 0.005 nM | CC50 [2]: > 984 nM | CC50 [3]: > 984 nM | EC50 ([4]; Hepatitis C virus, Huh-7, 72 h): 0.006 nM | EC50 ([5]; Hepatitis C virus, Huh-7, 48 h): 0.005 nM
